Values of other authors in patent US7414057B2, “Piperazine urea derivatives as melanocortin-4 receptor agonists” (Merck & Co., Inc., priority 2002, dated 2008).

Settings: injected intramuscularly or subcutaneously to males with psychogenic erectile dysfunction

For “Ac-Nle-c[Asp-His-DPhe-Arg-Trp-Lys]-NH2 [melanotan-II]”, the response rate is given as 75%.
